In patent publication US20190308988A1, “OPIOID RECEPTOR ANTAGONIST PRODRUGS” (Nirsum Laboratories, Inc., priority 2017, published 2019):

Test: Plasma stability, human plasma (HPLC-MS)
Assay type: in vitro ADME
Details: 2 μM, 37° C., 15 min
Protocol: Plasma Stability Determination of the Test Compounds in Rat, Dog, Cynomolgus Monkey and human plasma is performed using HPLC-MS. For rat, incubations are carried out in 96-well polypropylene plates in 5 aliquots of 70 μL each (one for each time point). […] Five time points are analyzed (0, 15, 120, 480 and 1440 min). […] All incubations are performed in duplicates. The samples are analyzed by HPLC-MS. The percentage of parent compound remaining after incubation in plasma is determined.

Structure (SMILES): C=C1CC[C@@]2(O)C3Cc4ccc(OCOC(=O)OCCCCCCCCCCCC)c5c4[C@@]2(CCN3CC2CC2)[C@H]1O5 [Compound 24, (((4aS,7aS,12bS)-3-(cyclopropylmethyl)-4a-hydroxy-7-methylene-2,3,4,4a,5,6,7,7a-octahydro-1H-4,12-methanobenzofuro[3,2-e]isoquinolin-9-yl)oxy)methyl dodecyl carbonate]
- % remaining at time point in minutes, 15 min: 94%
